In BigSolDB 2.1:

Work on C=CC(=O)Nc1cc(F)c(Br)c(F)c1 yielded a solubility (mole fraction) (in acetonitrile, 284.65 K) of 0.006, a solubility (mole fraction) (in acetonitrile, 291.45 K) of 0.0079 and a solubility (mole fraction) (in acetonitrile, 294.75 K) of 0.009. It also gave a solubility (mole fraction) (in acetonitrile, 298.25 K) of 0.0104, a solubility (mole fraction) (in acetonitrile, 301.85 K) of 0.0121 and a solubility (mole fraction) (in acetonitrile, 305.35 K) of 0.0139. The solubility (mole fraction) (in acetonitrile, 308.45 K) was 0.0158, the solubility (mole fraction) (in acetonitrile, 312.75 K) was 0.0186 and the solubility (mole fraction) (in acetonitrile, 316.65 K) was 0.0217. For the same compound, the solubility (mole fraction) (in acetonitrile, 320.05 K) was 0.0248, the solubility (mole fraction) (in acetonitrile, 323.85 K) was 0.0288 and the solubility (mole fraction) (in acetonitrile, 327.65 K) was 0.0332. It also gave a solubility (mole fraction) (in acetonitrile, 331.75 K) of 0.0386, a solubility (mole fraction) (in acetonitrile, 334.15 K) of 0.0423 and a solubility (mole fraction) (in acetonitrile, 337.75 K) of 0.0482. It also gave a solubility (mole fraction) (in acetonitrile, 340.45 K) of 0.0533, a solubility (mole fraction) (in acetonitrile, 343.55 K) of 0.0596 and a solubility (mole fraction) (in acetonitrile, 346.35 K) of 0.0662. The solubility (mole fraction) (in acetonitrile, 348.95 K) was 0.0725, the solubility (mole fraction) (in benzene, 296.35 K) was 0.0007 and the solubility (mole fraction) (in benzene, 302.95 K) was 0.0011. The solubility (mole fraction) (in benzene, 308.75 K) was 0.0014, the solubility (mole fraction) (in benzene, 310.75 K) was 0.0015 and the solubility (mole fraction) (in benzene, 317.65 K) was 0.0022. For the same compound, the solubility (mole fraction) (in benzene, 324.25 K) was 0.003, the solubility (mole fraction) (in benzene, 332.05 K) was 0.0044 and the solubility (mole fraction) (in benzene, 335.95 K) was 0.0054. It also gave a solubility (mole fraction) (in benzene, 340.85 K) of 0.0067, a solubility (mole fraction) (in benzene, 347.05 K) of 0.0094 and a solubility (mole fraction) (in ethanol, 295.25 K) of 0.0251. It also gave a solubility (mole fraction) (in ethanol, 297.65 K) of 0.0264, a solubility (mole fraction) (in ethanol, 301.55 K) of 0.0292 and a solubility (mole fraction) (in ethanol, 309.25 K) of 0.0351. It also gave a solubility (mole fraction) (in ethanol, 312.95 K) of 0.0384, a solubility (mole fraction) (in ethanol, 318.55 K) of 0.044 and a solubility (mole fraction) (in ethanol, 326.45 K) of 0.0534. It also gave a solubility (mole fraction) (in ethanol, 331.35 K) of 0.0604, a solubility (mole fraction) (in ethanol, 334.85 K) of 0.0659 and a solubility (mole fraction) (in ethanol, 339.55 K) of 0.074. For the same compound, the solubility (mole fraction) (in ethanol, 344.45 K) was 0.0838, the solubility (mole fraction) (in ethanol, 347.55 K) was 0.0905 and the solubility (mole fraction) (in methanol, 294.25 K) was 0.0142. The solubility (mole fraction) (in methanol, 298.65 K) was 0.0163, the solubility (mole fraction) (in methanol, 303.16 K) was 0.0189 and the solubility (mole fraction) (in methanol, 308.45 K) was 0.0221. It also gave a solubility (mole fraction) (in methanol, 312.35 K) of 0.0249, a solubility (mole fraction) (in methanol, 318.15 K) of 0.0298 and a solubility (mole fraction) (in methanol, 321.05 K) of 0.0325. It also gave a solubility (mole fraction) (in methanol, 324.65 K) of 0.036, a solubility (mole fraction) (in methanol, 327.45 K) of 0.0391 and a solubility (mole fraction) (in methanol, 328.95 K) of 0.041. The solubility (mole fraction) (in pyridine, 288.95 K) was 0.139, the solubility (mole fraction) (in pyridine, 292.45 K) was 0.145 and the solubility (mole fraction) (in pyridine, 298.95 K) was 0.157. The solubility (mole fraction) (in pyridine, 303.85 K) was 0.166, the solubility (mole fraction) (in pyridine, 310.25 K) was 0.178 and the solubility (mole fraction) (in pyridine, 317.05 K) was 0.193. It also gave a solubility (mole fraction) (in pyridine, 322.55 K) of 0.205, a solubility (mole fraction) (in pyridine, 328.45 K) of 0.219 and a solubility (mole fraction) (in pyridine, 333.15 K) of 0.23. It also gave a solubility (mole fraction) (in pyridine, 338.25 K) of 0.243, a solubility (mole fraction) (in pyridine, 344.95 K) of 0.262 and a solubility (mole fraction) (in pyridine, 348.85 K) of 0.273. It also gave a solubility (mole fraction) (in toluene, 286.65 K) of 0.0006, a solubility (mole fraction) (in toluene, 291.95 K) of 0.0008 and a solubility (mole fraction) (in toluene, 292.05 K) of 0.0008. The solubility (mole fraction) (in toluene, 295.95 K) was 0.0009, the solubility (mole fraction) (in toluene, 301.75 K) was 0.0011 and the solubility (mole fraction) (in toluene, 301.85 K) was 0.0012. The solubility (mole fraction) (in toluene, 307.95 K) was 0.0015, the solubility (mole fraction) (in toluene, 312.05 K) was 0.0019 and the solubility (mole fraction) (in toluene, 316.05 K) was 0.0022. The solubility (mole fraction) (in toluene, 319.25 K) was 0.0026, the solubility (mole fraction) (in toluene, 323.75 K) was 0.003 and the solubility (mole fraction) (in toluene, 327.95 K) was 0.0035. The solubility (mole fraction) (in toluene, 331.15 K) was 0.0043, the solubility (mole fraction) (in toluene, 334.65 K) was 0.0051 and the solubility (mole fraction) (in toluene, 337.65 K) was 0.0059. It also gave a solubility (mole fraction) (in toluene, 342.35 K) of 0.0069.
